Data reported in US20170064965A1, “ANTIMICROBIAL PEPTIDES DERIVED FROM PHAGE OF ACINETOBACTER BAUMANNII AND USE THEREOF” (Hualien Tzu Chi Hospital, Buddhist Tzu Chi Medical …, priority 2015, published 2017).
Values after ≈ are worked out from the molar mass of the structure shown. Read-outs that look alike come from different tables or passages of the source. Where a SMILES comes first, the peptide text is derived from it.

Tests used:
Assay type in all cases: cell-based
[1] = test system: Acinetobacter baumannii 39181
Method: (§1) Determination of Minimal Inhibitory Concentration (MIC)
(§2) In order to test the inhibitory effect of the antimicrobial peptides of the present disclosure, broth microdilution test was conducted to determine the minimal inhibition concentration (MIC) of the antimicrobial peptides against bacteria. The MIC represents the minimal concentration of the peptide which has the ability to inhibit bacteria growth completely.
(§3) Acinetobacter baumannii strains used in the examples in the conduction of the minimal inhibitory concentration and the minimum bactericidal concentration tests are shown in Table 2.

[2] = test system: Acinetobacter baumannii ATCC 19606CR; conditions: colistin-resistant
Method: as §1, §2, §3

[3] = test system: Acinetobacter baumannii BCRC 80276
Method: as §1, §2, §3

[4] = test system: Acinetobacter baumannii ATCC 17978CR; conditions: colistin-resistant
Method: as §1, §2, §3

[5] = test system: Acinetobacter baumannii 39400
Method: as §1, §2, §3

[6] = test system: Acinetobacter baumannii 44820
Method: as §1, §2, §3

[7] = test system: Acinetobacter baumannii 39181; remark: listed apart in the source
Method: (§4) Determination of Minimum Bactericidal Concentration (MBC)
(§5) In order to find out the minimum bactericidal concentration of the antimicrobial peptides of the present disclosure against bacteria, the surface of a suitable culture medium was covered by 100 μL of antimicrobial peptides at the minimal inhibitory concentration determined above with glass beads, then the medium was cultured at 37° C. for 24 hours, thereafter, and observation was conducted for 3 days. When no colony grew, it is the indication that the bacteria have been killed.
as §3

[8] = test system: Acinetobacter baumannii ATCC 19606CR; conditions: colistin-resistant; remark: listed apart in the source
Method: as §4, §5, §3

[9] = test system: Acinetobacter baumannii BCRC 80276; remark: listed apart in the source
Method: as §4, §5, §3

[10] = test system: Acinetobacter baumannii ATCC 17978CR; conditions: colistin-resistant; remark: listed apart in the source
Method: as §4, §5, §3

[11] = test system: Acinetobacter baumannii 39400; remark: listed apart in the source
Method: as §4, §5, §3

[12] = test system: Acinetobacter baumannii 44820; remark: listed apart in the source
Method: as §4, §5, §3

Acinetobacter baumannii [13] = assay: Scanning electron microscope observation of bacterial destruction; conditions: 80 μM peptide, 1×10^9 CFU bacteria, 37° C., 1 hour
Acinetobacter baumannii [14] = assay: MBC determination
Method: as §4, §5

Acinetobacter baumannii [15] = assay: Broth microdilution MIC, summary in text
Method: as §1, §2

[16] = test system: Acinetobacter baumannii ATCC 19606; assay: Broth microdilution MIC; conditions: ATCC 19606, standard strain
Method: as §1, §2, §3

[17] = test system: Acinetobacter baumannii ATCC 19606; assay: Minimum bactericidal concentration (MBC) determination; conditions: ATCC 19606, standard strain
Method: as §4, §5, §3

[18] = test system: Acinetobacter baumannii ATCC 17978; assay: Broth microdilution MIC; conditions: ATCC 17978, standard strain
Method: as §1, §2, §3

[19] = test system: Acinetobacter baumannii ATCC 17978; assay: Minimum bactericidal concentration (MBC) determination; conditions: ATCC 17978, standard strain
Method: as §4, §5, §3

[20] = BCRC 80276, multidrug-resistant
[21] = Acinetobacter baumannii, summary of Table 3
[22] = multidrug-resistant Acinetobacter baumannii

Row | SMILES | Minimal Inhibitory Concentration (MIC) ([1]; 39181, multidrug-resistant) [µM] | Minimal Inhibitory Concentration (MIC) [2] [µM] | Minimal Inhibitory Concentration (MIC) [3, 20] [µM] | Minimal Inhibitory Concentration (MIC) [4] [µM] | Minimal Inhibitory Concentration (MIC) ([5]; 39400, multidrug-resistant) [µM] | Minimal Inhibitory Concentration (MIC) ([6]; 44820, multidrug-resistant) [µM] | Minimum Bactericidal Concentration (MBC) ([7]; 39181, multidrug-resistant) [µM] | Minimum Bactericidal Concentration (MBC) [8] [µM] | Minimum Bactericidal Concentration (MBC) [9, 20] [µM] | Minimum Bactericidal Concentration (MBC) [10] [µM] | Minimum Bactericidal Concentration (MBC) ([11]; 39400, multidrug-resistant) [µM] | Minimum Bactericidal Concentration (MBC) ([12]; 44820, multidrug-resistant) [µM] | appearance of bacteria under scanning electron microscope (Acinetobacter baumannii [13]) | minimum bactericidal concentration (Acinetobacter baumannii [14]; [21]) [µM] | minimal inhibitory concentration (Acinetobacter baumannii [15]; [21]) [µM] | Minimal Inhibitory Concentration (MIC) [16] [µM] | Minimum Bactericidal Concentration (MBC) [17] [µM] | Minimal Inhibitory Concentration (MIC) [18] [µM] | Minimum Bactericidal Concentration (MBC) [19] [µM] | also measured
1 | CC[C@H](C)[C@H](NC(=O)[C@H](C)NC(=O)[C@H](CCCCN)NC(=O)[C@H](CCC(N)=O)NC(=O)[C@@H](NC(=O)[C@H](C)NC(=O)[C@@H](NC(=O)[C@H](CC(C)C)NC(=O)[C@H](CCCCN)NC(=O)[C@H](CCC(=O)O)NC(=O)[C@H](CC(C)C)NC(=O)[C@H](C)NC(=O)[C@H](CCCCN)NC(=O)[C@H](CCC(=O)O)NC(=O)[C@@H]1CCCN1C(=O)[C@@H](N)CC(N)=O)[C@@H](C)CC)[C@@H](C)CC)C(=O)N[C@@H](CCCCN)C(=O)NCC(=O)N[C@@H](CCSC)C(=O)N[C@@H](CC(C)C)C(=O)N[C@@H](CC(N)=O)C(=O)NCC(=O)N[C@@H](Cc1c[nH]c2ccccc12)C(=O)N[C@@H](Cc1ccccc1)C(=O)N[C@H](C(=O)NCC(=O)N[C@H](C(=O)NCC(=O)N[C@@H](Cc1ccccc1)C(=O)N[C@@H](CCCNC(=N)N)C(=O)N[C@@H](CCCNC(=N)N)C(=O)N[C@@H](CCCCN)C(=O)N[C@@H](CCCNC(=N)N)C(=O)O)C(C)C)[C@@H](C)O [LysAB2 113-145 G4] (H-NPEKALEKLIAIQKAIKGMLNGWFTGVGFRRKR-OH; N-terminus and C-terminus assumed) | 4 | 8 | 4 | 8 | 4 | 4 | 4 | 8 | 4 | 8 | 4 | 4 | incomplete surface and holes thereon | 4 (≈ 15.1 µg/mL) | 4 (≈ 15.1 µg/mL) | 4 | 4 |  |  | minimum bactericidal concentration (Acinetobacter baumannii [14]; [22]): 4 µM (≈ 15.1 µg/mL); minimal inhibitory concentration (Acinetobacter baumannii [15]; [22]): 4 µM (≈ 15.1 µg/mL)
2 | CC[C@H](C)[C@H](NC(=O)[C@H](C)NC(=O)[C@H](CCCCN)NC(=O)[C@H](CCC(N)=O)NC(=O)[C@@H](NC(=O)[C@H](C)NC(=O)[C@@H](NC(=O)[C@H](CC(C)C)NC(=O)[C@H](CCCCN)NC(=O)[C@H](CCC(=O)O)NC(=O)[C@H](CC(C)C)NC(=O)[C@H](C)NC(=O)[C@H](CCCCN)NC(=O)[C@@H](N)CCC(=O)O)[C@@H](C)CC)[C@@H](C)CC)C(=O)N[C@@H](CCCCN)C(=O)NCC(=O)N[C@@H](CCSC)C(=O)N[C@@H](CC(C)C)C(=O)N[C@@H](CC(N)=O)C(=O)NCC(=O)N[C@@H](Cc1c[nH]c2ccccc12)C(=O)N[C@@H](Cc1ccccc1)C(=O)N[C@H](C(=O)NCC(=O)N[C@H](C(=O)N[C@@H](Cc1ccccc1)C(=O)N[C@@H](CCCNC(=N)N)C(=O)N[C@@H](CCCNC(=N)N)C(=O)N[C@@H](CCCCN)C(=O)N[C@@H](CCCNC(=N)N)C(=O)O)C(C)C)[C@@H](C)O [LysAB2 113-145 G1] (H-EKALEKLIAIQKAIKGMLNGWFTGVFRRKR-OH; N-terminus and C-terminus assumed) | 8 | 16 | 8 | 16 | 8 | 8 | 8 | 16 | 8 | 16 | 8 | 8 |  |  |  | 8 | 8 | 8 | 8 | 
3 | CC[C@H](C)[C@H](NC(=O)[C@H](C)NC(=O)[C@H](CCCCN)NC(=O)[C@H](CCC(N)=O)NC(=O)[C@@H](NC(=O)[C@H](C)NC(=O)[C@@H](NC(=O)[C@H](CC(C)C)NC(=O)[C@H](CCCCN)NC(=O)[C@H](CCC(=O)O)NC(=O)[C@H](CC(C)C)NC(=O)[C@H](C)NC(=O)[C@H](CCCCN)NC(=O)[C@@H](N)CCC(=O)O)[C@@H](C)CC)[C@@H](C)CC)C(=O)N[C@@H](CCCCN)C(=O)NCC(=O)N[C@@H](CCSC)C(=O)N[C@@H](CC(C)C)C(=O)N[C@@H](C)C(=O)NCC(=O)N[C@@H](Cc1c[nH]c2ccccc12)C(=O)N[C@@H](Cc1ccccc1)C(=O)N[C@H](C(=O)NCC(=O)N[C@H](C(=O)N[C@@H](C)C(=O)N[C@@H](CCCNC(=N)N)C(=O)N[C@@H](CCCNC(=N)N)C(=O)N[C@@H](CCCCN)C(=O)N[C@@H](CCCNC(=N)N)C(=O)O)C(C)C)[C@@H](C)O [LysAB2 113-145 G3] (H-EKALEKLIAIQKAIKGMLAGWFTGVARRKR-OH) |  | 16 |  | 16 |  |  |  | 32 |  | 32 |  |  |  |  |  | 16 | 16 | 16 | 16 | Minimal Inhibitory Concentration (MIC) [1]; 39181: 16 µM; Minimal Inhibitory Concentration (MIC) ([3]; BCRC 80276): 16 µM; Minimal Inhibitory Concentration (MIC) [5]; 39400: 16 µM; Minimal Inhibitory Concentration (MIC) [6]; 44820: 16 µM; Minimum Bactericidal Concentration (MBC) [7]; 39181: 16 µM; Minimum Bactericidal Concentration (MBC) ([9]; BCRC 80276): 16 µM; Minimum Bactericidal Concentration (MBC) [11]; 39400: 16 µM; Minimum Bactericidal Concentration (MBC) [12]; 44820: 16 µM
4 | CC[C@H](C)[C@H](NC(=O)[C@H](C)NC(=O)[C@@H](NC(=O)[C@H](CCC(N)=O)NC(=O)[C@@H](NC(=O)[C@H](C)NC(=O)[C@@H](NC(=O)[C@H](CC(C)C)NC(=O)[C@@H]1CCCN1C(=O)[C@H](CCC(=O)O)NC(=O)[C@H](CC(C)C)NC(=O)[C@H](C)NC(=O)[C@H](CCCCN)NC(=O)[C@H](CCC(=O)O)NC(=O)[C@@H]1CCCN1C(=O)[C@@H](N)CC(N)=O)[C@@H](C)CC)[C@@H](C)CC)[C@@H](C)CC)C(=O)N[C@@H](CCCCN)C(=O)NCC(=O)N[C@@H](CCSC)C(=O)N[C@@H](CC(C)C)C(=O)N[C@@H](CC(N)=O)C(=O)NCC(=O)N[C@@H](Cc1c[nH]c2ccccc12)C(=O)N[C@@H](Cc1ccccc1)C(=O)N[C@H](C(=O)NCC(=O)N[C@H](C(=O)NCC(=O)N[C@@H](Cc1ccccc1)C(=O)N[C@@H](CCCNC(=N)N)C(=O)N[C@@H](CCCNC(=N)N)C(=O)N[C@@H](CCCCN)C(=O)N[C@@H](CCCNC(=N)N)C(=O)O)C(C)C)[C@@H](C)O [LysAB2 113-145] (H-NPEKALEPLIAIQIAIKGMLNGWFTGVGFRRKR-OH; N-terminus and C-terminus assumed) | 64 | 64 | 64 | 64 | 64 | 64 | 64 | 64 | 64 | 64 | 64 | 64 | surface of the bacterial body is incomplete and has holes thereon, even is broken | 64 (≈ 238 µg/mL) | 64 (≈ 238 µg/mL) | 64 | 64 |  |  | 
